Data set [1] relates to Erwinia amylovora PMV6076. In words: MIC, growth inhibition in microtiter plates (TSB). Type of data set: cell-based. Particulars: Ea, 25°C, 48 h, OD 600 nm, lowest concentration with no growth, given as interval of tested concentrations, three replicates, experiment repeated twice. A digest of the protocol: (§1)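 OD600 readout, hourly over 48 h at 25°C, 20 s shaking; TSB medium; inoculum from 10^8 CFU mL^-1 water suspension; triplicates, experiment run twice; MIC = lowest concentration showing no growth at endpoint.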

In data set [2] the test system is Pseudomonas syringae pv. actinidiae Psa3700.1.1. In words: MIC, growth inhibition in microtiter plates (TSB). Type of data set: cell-based. Conditions: Psa, 25°C, 48 h, OD 600 nm, lowest concentration with no growth, given as interval of tested concentrations, three replicates, experiment repeated twice. The essentials: as §1
Data set [3] concerns Pseudomonas syringae pv. syringae EPS94. Nature of the data set: MIC, growth inhibition in microtiter plates (TSB). Type of data set: cell-based. Conditions: Pss, 25°C, 48 h, OD 600 nm, lowest concentration with no growth, given as interval of tested concentrations, three replicates, experiment repeated twice. The essentials: as §1
For data set [4], the system named is Xanthomonas arboricola pv. pruni CFBP5563. In words: MIC, growth inhibition in microtiter plates (TSB). In kind it is cell-based. Conditions: Xap, 25°C, 48 h, OD 600 nm, lowest concentration with no growth, given as interval of tested concentrations, three replicates, experiment repeated twice. The essentials: as §1
The subject of data set [5] is Xanthomonas axonopodis pv. vesicatoria 2133–2. Nature of the data set: MIC, growth inhibition in microtiter plates (TSB). In kind it is cell-based. Conditions: Xav, 25°C, 48 h, OD 600 nm, lowest concentration with no growth, given as interval of tested concentrations, three replicates, experiment repeated twice. The essentials: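 Peptides, dissolved in water at 1 mM and filter-sterilized, were diluted and mixed with bacterial suspension (10^8 CFU mL^-1 before mixing) in TSB. Plates were incubated at 25°C with shaking, and OD600 was read hourly for 48 h. MIC was the lowest concentration with no growth at the end.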

For data set [6], the system named is Xanthomonas fragariae Xf349-9A. In words: MIC, growth inhibition in microtiter plates (TSB). Type of data set: cell-based. Conditions: Xf, 25°C, 48 h, OD 600 nm, lowest concentration with no growth, given as interval of tested concentrations, three replicates, experiment repeated twice. The essentials: as §1
For data set [7], the system named is Fusarium oxysporum f. sp. lycopersici FOL 3 race 2. Nature of the data set: MIC, antifungal growth inhibition in microtiter plates (PDB). In kind it is cell-based. Particulars: Fo, 22°C, seven days, OD 600 nm, lowest concentration with no growth, given as interval of tested concentrations, three replicates, experiment repeated twice. A digest of the protocol:
(§2)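 Conidial suspensions (10^3 conidia/mL P. expansum, 10^4 F. oxysporum) incubated with peptides in PDB with 0.003% chloramphenicol at 22 °C for seven days, OD600 read every 2 h. MIC is the lowest concentration with no growth at the end; triplicates, experiment repeated twice.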

Data set [8] concerns Penicillium expansum EPS26. Described as above. In kind it is cell-based. Particulars: Pe, 22°C, seven days, OD 600 nm, lowest concentration with no growth, given as interval of tested concentrations, three replicates, experiment repeated twice. The essentials:
as §2

The subject of the next data set is tobacco leaves. In words: Effect of peptide infiltration on tobacco leaves. Type of data set: in vivo. Particulars: 250 μM, 100 μL infiltrated into mesophyll, measured after 48 h. The method, then:
BP100 and the 36 lipopeptides were evaluated for their effect upon infiltration on tobacco leaves as described previously. Peptide solutions of 50, 150 and 250 μM were infiltrated (100 μL) into the mesophylls of fully expanded tobacco leaves. Infiltrations were carried out in a single leaf, and for each peptide and dose, at least three leaves randomly distributed in different plants were inoculated. Control infiltrations with water (negative control) or melittin (positive control) at the same molar concentration were performed. The appearance of symptoms on the leaves was followed for 48 h after infiltration and measured as a lesion diameter.

Another data set concerns T1, proteinase K.
T1 construct: purchased Sigma-Aldrich Corporation, Spain
Nature of the data set: Susceptibility to protease degradation. Particulars: proteinase K (isolated protease) in TRIS buffer; 50 μg/mL peptide, 1 μg/mL proteinase K, 100 mM TRIS buffer pH 7.6, 25°C, 60 min; decrease of HPLC peak area (220 nm); read-out: Digestion with proteinase K (percentage of degraded peptide). Type of data set: in vitro ADME. Here is the method: Digestion of BP100 and of 16 selected lipopeptides was carried out by treating 50 μg/mL peptide with 1 μg/mL proteinase K (Sigma-Aldrich Corporation, Spain) in 100 mM TRIS buffer, pH 7.6, at 25°C. The peptide cleavage after 60 min was determined by HPLC using a Kromasil (4.6 × 40 mm; 3 μm particle size) C18 reverse-phase column. Linear gradients of 0.1% aqueous TFA and 0.1% TFA in CH3CN were run from 0.98:0.02 to 0:1 over 12 min with UV detection at 220 nm. Digestion was estimated as the percentage of degraded lipopeptide calculated from the decrease of the HPLC peak area of the native peptide.

The term MIC denotes the smallest concentration in the dilution series that meets the test's criterion for growth inhibition. With `CCCCCC(=O)NCCCC[C@H](NC(=O)[C@H](CCCCN)NC(=O)[C@H](CCCCN)NC(C)=O)C(=O)N[C@@H](Cc1ccccc1)C(=O)N[C@@H](CCCCN)C(=O)N[C@@H](CCCCN)C(=O)N[C@H](C(=O)N[C@@H](CC(C)C)C(=O)N[C@@H](CCCCN)C(=O)N[C@@H](Cc1ccc(O)cc1)C(=O)N[C@@H](CC(C)C)C(N)=O)[C@@H](C)CC` [BP370, Ac-KKK(COC5H11)FKKILKYL-NH2], the MIC is 3.1 to 6.2 µM in data set [1]; 3.1 to 6.2 µM in data set [2]; 3.1 to 6.2 µM in [3]; 3.1 to 6.2 µM in data set [4]; 3.1 to 6.2 µM in [5]; 6.2 to 12.5 µM in data set [6]. Further, the MIC lay within 0.8 to 1.6 µM in data set [7] and 6.2 to 12.5 µM in data set [8]. In addition, the “Size of the lesions in infiltrated tobacco leaves (diameter)” value with tobacco leaves worked out at 5.0 ± 1.6 mm. The metabolised at 1 h, 50 μg/mL in the data set with proteinase K was determined as 26%.

For the origin of these results see PMC6063448, “Antimicrobial activity of linear lipopeptides derived from BP100 towards plant pathogens” (PLoS ONE, 2018).
